Measured values reported in article PMC8879095, “UHPLC-MS/MS Analysis of Antibiotics Transfer and Concentrations in Porcine Oral Fluid after Intramuscular Application” (Pharmaceuticals, 2022).
Read-outs that look alike come from different tables or passages of the source.

Legend:
[1] = weak organic acid; cited from earlier work
[2] = Antibiotic concentrations in porcine oral fluid after intramuscular application (UHPLC-MS/MS); assay type: in vivo; conditions: pigs, i.m.; for concentration at 1 d / concentration at 2 d / concentration at 3 d / concentration at 4 d / concentration at 5 d / concentration at 6 d / concentration at 7 d / concentration at 8 d / concentration at 9 d / concentration at 10 d / concentration at 11 d / concentration at 12 d / concentration at 13 d / concentration at 14 d / concentration at 15 d / concentration at 16 d / concentration at 17 d / concentration at 18 d / concentration at 19 d / concentration at 20 d / concentration at 21 d / concentration at 22 d / concentration at 23 d / concentration at 24 d / concentration at 25 d / concentration at 26 d / concentration at 27 d / concentration at 28 d / concentration at 29 d / concentration at 30 d: male, (Landrace × Yorkshire) × Duroc crossbred (DanBred sows), pig, intramuscular; for concentration at 1 d / concentration at 2 d / concentration at 3 d / concentration at 4 d / concentration at 5 d / concentration at 6 d / concentration at 7 d / concentration at 8 d / concentration at 9 d / concentration at 10 d / concentration at 11 d / concentration at 12 d / concentration at 13 d / concentration at 14 d / concentration at 15 d / concentration at 16 d / concentration at 17 d / concentration at 18 d / concentration at 19 d / concentration at 20 d / concentration at 21 d / concentration at 22 d / concentration at 23 d / concentration at 24 d / concentration at 25 d / concentration at 26 d / concentration at 27 d / concentration at 28 d / concentration at 29 d / concentration at 30 d / concentration in oral fluid at withdrawal period / Avarage Concentrations in oral fluid: oral fluid; for concentration in oral fluid at withdrawal period: at the end of the withdrawal period for tissues of each drug (Table 3); for distribution to oral fluid: conclusion in words
Method: All animals were born in the sow farm (8000 DanBred sows) located in Northern Poland, after crossing ♀(♂Landrace × ♀Yorskshire) × ♂Duroc. Piglets were weaned after 4 weeks of lactation with an average weight of 6 kg and then moved to the weaner stable (23,000 weaners). After the next 7 weeks, animals were transported to the 9000-places fattening farm with an average body weight of 28 kg, where the trial was performed. All farms in the aforementioned three-phase model used weekly batches and an all-in all-out system. Specialist veterinary and production management care were provided in each location.
For the purpose of the study, 240 immunologically castrated boars were divided into 8 groups, 30 animals in each pen. For the control group, 30 pigs were used in separate pens. Their initial body weight was between 40 and 60 kg. Pigs were housed at 20–25 °C. Fatteners were fed ad libitum with antimicrobial-free water and feed provided by feeders throughout the study. Before the experiment, water and feed were checked for antimicrobials, and no antimicrobial treatments were administered to these pigs before. All animals in one pen were treated due to the same health issue using disposable needles and the same drug and dosage. Pens were separated from each other with concrete walls. The drugs and dosage administered to each experimental group with an indication of withdrawal period for tissues are listed in Table 3. The oral fluid samples were collected using three cotton ropes (70 cm length with 1 cm diameter) in each pen suspended separately for 25 min on the front wall of the pen with bottoms at the pigs’ shoulder height, away from water and feed.
The research material was one pooled sample of oral fluid from 10 pigs, in triplicate, per pen. Ropes were removed immediately after collection. The first oral fluid sample was collected 24 h after the first injection. The collection of each subsequent sample took place at the same time (11:30 A.M.) for 35 consecutive days. Additionally, oral fluid samples were collected from pigs not treated with any antibiotics. Oral fluid from each pen was pooled into one 50-mL Falcon plastic tube and centrifuged at 9447× rcf for 15 min. Centrifuged material was transferred to a 15 mL plastic tube and frozen at −20 °C until analysis.
Before the analysis, the oral fluid samples were centrifuged at 9447× rcf. Next, an aliquot (1 mL) of oral fluid was placed into a 2 mL polypropylene centrifuge tube, and the 30 µL of the internal standard at the concentration of 2 µg/mL was added. For the extraction of analysed antibiotics, 600 µL of 0.5% formic acid was added, vortexed for 30 s and centrifuged for 10 min at 9447× rcf. Then, the supernatant was filtered through a […] PVDF filter into an amber glass vial before chromatographic analysis.
The mass spectrometry detection was operated in the positive ESI mode with multiple reaction monitoring (MRM).

[3] = first day of medication (abstract), read-out: concentration in oral fluid on the first day of medication
[4] = time 1 d (24 h after first injection), treatment period, read-out: Avarage Concentrations in oral fluid
[5] = treatment period, read-out: Avarage Concentrations in oral fluid
[6] = time 4 d, posttreatment, read-out: Avarage Concentrations in oral fluid
[7] = posttreatment, read-out: Avarage Concentrations in oral fluid
[8] = time 30 d, posttreatment, read-out: Avarage Concentrations in oral fluid
[9] = time 1 d (24 h after first injection), treatment period

Compound | concentration at 1 d [2, 3] [ng/g] | concentration at 1 d [2, 4] [ng/mL] | concentration at 2 d [2, 5] [ng/mL] | concentration at 3 d [2, 5] [ng/mL] | concentration at 4 d [2, 6] [ng/mL] | concentration at 5 d [2, 7] [ng/mL] | concentration at 6 d [2, 7] [ng/mL] | concentration at 7 d [2, 7] [ng/mL] | concentration at 8 d [2, 7] [ng/mL] | concentration at 9 d [2, 7] [ng/mL] | concentration at 10 d [2, 7] [ng/mL] | concentration at 11 d [2, 7] [ng/mL] | concentration at 12 d [2, 7] [ng/mL] | concentration at 13 d [2, 7] [ng/mL] | concentration at 14 d [2, 7] [ng/mL] | concentration at 15 d [2, 7] [ng/mL] | concentration at 16 d [2, 7] [ng/mL] | concentration at 17 d [2, 7] [ng/mL] | concentration at 18 d [2, 7] [ng/mL] | concentration at 19 d [2, 7] [ng/mL] | further results
COc1ncnc(NS(=O)(=O)c2ccc(N)cc2)c1OC [SDX, sulfadoxine] | 22300 | 22300 | 5860 ± 1160 | 4570 ± 766 | 4010 | 5780 ± 788 | 4070 ± 669 | 310 ± 98 | 392 ± 88 | 386 ± 72 | 134 ± 49 | 247 ± 62 | 74.8 ± 21 | 68 ± 16 | 77.4 ± 18 | 69.8 ± 14 | 78.4 ± 12 | 47 ± 18 | 44.2 ± 16 | 58.4 ± 11 | pKa [1]: 6.16; concentration at 20 d [2, 7]: 76.4 ± 14 ng/mL; concentration at 21 d [2, 7]: 21.4 ± 7.3 ng/mL; concentration at 22 d [2, 7]: 25.3 ± 6.9 ng/mL; concentration at 23 d [2, 7]: 15.9 ± 7.2 ng/mL; concentration at 24 d [2, 7]: 37 ± 5.4 ng/mL; concentration at 25 d [2, 7]: 31.5 ± 6.3 ng/mL; concentration at 26 d [2, 7]: 19.1 ± 4.2 ng/mL; concentration at 27 d [2, 7]: 19.3 ± 3.7 ng/mL; concentration at 28 d [2, 7]: 35 ± 8.1 ng/mL; concentration at 29 d [2, 7]: 30.4 ± 7.6 ng/mL; concentration at 30 d [2, 8]: 23 ng/mL; concentration in oral fluid at withdrawal period [2]: 247 ng/mL; Avarage Concentrations in oral fluid [2, 9]: 22,300 ± 3555 µg/L; Avarage Concentrations in oral fluid ([2]; time 4 d, posttreatment): 4010 ± 601 µg/L; Avarage Concentrations in oral fluid ([2]; time 30 d, posttreatment): 23.0 ± 6.2 µg/L; distribution to oral fluid [2]: high distribution
COc1cc(Cc2cnc(N)nc2N)cc(OC)c1OC [TRMP, trimethoprim] | 14100 | 14100 | 2810 ± 556 | 1810 ± 311 | 1030 ± 221 | 1400 ± 255 | 1280 ± 198 | 264 ± 73 | 125 ± 41 | 128 ± 38 | 36.4 ± 15 | 67.1 ± 20 | 25.2 ± 9.6 | 22 ± 8.7 | 22.1 ± 6.4 | 31.6 ± 11 | 24.2 ± 8.2 | 18.9 ± 4.8 | 13 ± 3.6 | 42 ± 14 | concentration at 20 d [2, 7]: 36.4 ± 10 ng/mL; concentration at 21 d [2, 7]: 10.2 ± 4.4 ng/mL; concentration at 22 d [2, 7]: 46.4 ± 16 ng/mL; concentration at 23 d [2, 7]: 6.9 ± 2.4 ng/mL; concentration at 24 d [2, 7]: 19.4 ± 5.5 ng/mL; concentration at 25 d [2, 7]: 17.8 ± 4.1 ng/mL; concentration at 26 d [2, 7]: 15.9 ± 3.6 ng/mL; concentration at 27 d [2, 7]: 10.4 ± 2.9 ng/mL; concentration at 28 d [2, 7]: 16.5 ± 6.2 ng/mL; concentration at 29 d [2, 7]: 21.2 ± 9.4 ng/mL; concentration at 30 d [2, 8]: 22.4 ng/mL; concentration in oral fluid at withdrawal period [2]: 67.1 ng/mL; Avarage Concentrations in oral fluid [2, 9]: 14,100 ± 2556 µg/L; Avarage Concentrations in oral fluid ([2]; time 30 d, posttreatment): 22.4 ± 9.1 µg/L; distribution to oral fluid [2]: high distribution
